# How the values were obtained:
# [1] = test system: glioblastoma GBM; experiment: Cytotoxicity test (sulphorodamine B), GBM; assay type: cell-based; details: Homo sapiens, 24 h incubation, survival 48 h after removal
# Excerpt: (§1) Different cell lines deriving from solid tumors were also used. • 1. Human prostate carcinoma PC3 and DU145. These cell lines were maintained in RPMI 1640 medium containing 10% FCS, 1% sodium pyruvate and 1% glutamine; • 2. Human colon adenocarcinoma LoVo. This cell line was maintained in HAM's F-12 medium, containing 10% FCS and 1% glutamine. • 3. Human ovarian carcinoma such as A2780 and A2780/Dx, sensitive and resistant to drugs, respectively (doxorubicin, taxol, etoposide, vincristine); IGROV-1 and IGROV-1/Pt, sensitive and resistant to platinum-based chemotherapy, respectively, were maintained in RPMI 1640 medium containing 10% FCS, 1% sodium pyruvate and 1% glutamine; • 4. Human melanoma MeWo and MeS 2.21, glioblastoma GBM, no small cell lung carcinomas A431, NCI—H460, osteosarcomas SAOS and U2OS were maintained in RPMI 1640 medium containing 10% FCS, 1% sodium pyruvate and 1% glutamine.
# (§2) The cytotoxicity tests were carried out using NB4 or HL-60 cells in suspension (10000/well). The cells were seeded in a volume of 250 μl in 96 well plates and incubated for 24 hours at 37° C. […] The optical density was measured using a Multiskan spectrophotometer at 540 nm. […]
# (§3) Cell survival was determined by incubation with ST1926 for 24 hours, 48 hours after the removal of the compound. […]
# [2] = test system: Murine pulmonary adenocarcinoma Madison 109 (M109); experiment: Antitumoral activity in murine pulmonary carcinoma model M109; assay type: in vivo, BALB/c mouse; details: qdx5x3w; for TVI %: 2 days after final administration
# Procedure: Murine pulmonary adenocarcinoma Madison 109 cells (M109) were maintained by s.c. passage of tumor fragments. The day of inoculation, the cell suspension was injected i.m. in the rear left limb of a 20 g male BALB/c mouse at a density of 3×10^5 cells/mouse. 3LL murine Lewis lung carcinoma was routinely maintained by i.m. passages (every 10-14 days) of 1×10^5 cells/mouse in C57BL/6J mice. For antitumor activity experiments, tumors were excised from donor mice and after mechanical desegregation and enzymatic digestion tumor cell viability was assessed by the trypan blue dye exclusion test. Then, 1×10^5 cells/100 μl/mouse were injected i.m. into the right hind leg muscle of C57BL/6J mice.
# Tumor dimension measurements were performed using a digital calliper (Vernier Caliper) from the day in which the mass became measurable, twice weekly. The tumor mass was assessed from the size of the two principal dimensions (length and breadth), expressed in mm, applying the formula (length×breadth^2)/2 that is, the tumor volume in mm3. For every experimental group the percentage of inhibition of tumor volume (TVI %) was calculated, with respect to that of the control that is (100−(T/C %). TVI was evaluated 2 days after the final administration of ST1926.
# The mean survival time (MST) was also measured and the increase in mean life-span expressed as ILS % (increase of life span) calculated as (MSTT/MSTC)×100−100.
# The comparison between the values of TVI and of survival time, obtained for each group were performed with the non parametric Mann Whitney test for non paired data, using the Instat software from GraphPad inc.
# The ST1926 solution was prepared immediately before use and solubilised in cremophor:ethanol 1:1 and subsequently diluted 1:4 in buffered saline solution. The treatments of the animals were carried out in a volume of 10 ml/kg. The treatment scheme for ST1926 at different doses was for 5 consecutive days (qdx5), beginning 1 day after the inoculation with the tumoral cells and was repeated for 3 cycles.
# The mice (8 for each group) were weighed prior to each treatment, firstly, so as to be able to administer the correct quantity of substance, based on the eventual variations in weight observed throughout the period of drug administration, and also to be able to register the maximum weight loss throughout the treatment (BWL % max).
# [3] = test system: Human ovarian carcinoma IGROV-1; experiment: Cytotoxicity test (sulphorodamine B), IGROV-1; assay type: cell-based; details: 24 h incubation, survival 48 h after removal
# Excerpt: as §1, §2, §3
# [4] = test system: human microvascular endothelial (HMVE) cells; details: after 96 h of treatment, cited from earlier work
smiles,measurement,setting,value
"O=C(O)/C=C/c1ccc(-c2ccc(O)c(C34CC5CC(CC(C5)C3)C4)c2)cc1 [ST1926, E-4-(3-(1-adamantyl)-4-hydroxyphenyl)cinnamic acid]",IC50,[1],180 nM
same,BWL % Max,"[2]; M109, 10 mg/kg i.p.",9%
same,ILS %,"[2]; M109, 10 mg/kg i.p.",27%
same,MST (range days),"[2]; M109, 10 mg/kg i.p.",*28 (25-35) days
same,TVI %,"[2]; M109, 10 mg/kg i.p.",18%
same,BWL % Max,"[2]; M109, 10 mg/kg p.o.",10%
same,ILS %,"[2]; M109, 10 mg/kg p.o.",59%
same,MST (range days),"[2]; M109, 10 mg/kg p.o.",**35 (27-42) days
same,TVI %,"[2]; M109, 10 mg/kg p.o.",*49%
same,BWL % Max,"[2]; M109, 15 mg/kg i.p.",10%
same,ILS %,"[2]; M109, 15 mg/kg i.p.",64%
same,MST (range days),"[2]; M109, 15 mg/kg i.p.",**36 (30-42) days
same,TVI %,"[2]; M109, 15 mg/kg i.p.",*46%
same,IC50,[3],230 nM
same,inhibition (%) at 0.5 μM,"[4]; 0.5 μM, relative to vehicle alone control",90%
same,IC50,"[4]; highest concentration evaluated 0.5 μM, read-out: IC50 (concentration inhibiting proliferation by 50%)",100 nM
